Source: patent US20050080113A1, “Medicinal compositions” (priority 2001, published 2005)

Row | Structure (SMILES) | melting point [°C]
1 | Cc1cccc(-c2nc(-c3ccc(S(C)(=O)=O)cc3)sc2-c2ccnc(SCc3ccccc3)c2)c1 [D 27, 5 (2 benzylthio-4 pyridyl)-4 (3-methylphenyl)-2 (4 methylsulfonylphenyl)-1,3 thiazole] | 182 to 185
2 | COc1ccc(-c2nc(N)sc2-c2ccnc(N)c2)cc1 [H 1, [5 (2 amino-4 pyridyl)-4 (4 methoxyphenyl)-1,3 thiazol-2-yl]amine] | 251 to 254
3 | Nc1nc(-c2ccc(F)cc2)c(-c2ccnc(F)c2)s1 [H 7-3, [4 (4 fluorophenyl)-5 (2-fluoro-4 pyridyl)-1,3 thiazol-2 yl]amine] | 243 to 245
4 | Cc1cccc(-c2nc(N)sc2-c2ccnc(C)c2)c1 [H 7-4, [4-(3-methylphenyl)-5-(2-methyl-4-pyridyl)-1,3-thiazol-2-yl]amine] | 205 to 206
5 | Cc1cc(C)cc(-c2nc(N)sc2-c2ccnc(C)c2)c1 [H 7-5, [4 (3,5 dimethylphenyl)-5-(2 methyl-4 pyridyl)-1,3 thiazol-2 yl]amine] | 219 to 220
6 | Cc1cccc(N2C=C(c3cc(C)nc(C)c3)SC2N)c1 (centres unmarked) [H 7-6, [5 (2,6 dimethyl-4-pyridyl)-3 (3 methylphenyl)-1,3 thiazol-2 yl]amine] | 214 to 216
7 | Cc1cc(C)cc(-c2nc(N)sc2-c2cc(C)nc(C)c2)c1 [H 7-7, [4 (3,5 dimethylphenyl)-5-(2,6 dimethyl-4 pyridyl)-1,3 thiazol-2 yl]amine] | 256 to 258
8 | Cc1cc(-c2sc(N)nc2-c2ccc(F)cc2)ccn1 [H 7-8, [4 (4 fluorophenyl)-5 (2-methyl-4 pyridyl)-1,3 thiazol-2 yl]amine] | 233 to 234
9 | Cc1cccc(-c2nc(-c3ccccc3Cl)sc2-c2ccnc(C)c2)c1 [H 14-1, 2 (2 chlorophenyl)-4 (3-methylphenyl)-5 (2 methyl-4 pyridyl)-1,3 thiazole] | 83 to 84
10 | Cc1cccc(-c2nc(-c3ccc(Cl)cc3)sc2-c2ccnc(C)c2)c1 [H 14-2, 2 (4 chlorophenyl)-4 (3-methylphenyl)-5 (2 methyl-4 pyridyl)-1,3 thiazole] | 104 to 105
11 | Cc1cccc(-c2nc(-c3ccccc3F)sc2-c2ccnc(C)c2)c1 [H 14-3, 2 (2 fluorophenyl)-4 (3-methylphenyl)-5 (2 methyl-4 pyridyl)-1,3 thiazole] | 73 to 74
12 | Cc1cccc(-c2nc(-c3ccc(F)cc3)sc2-c2ccnc(C)c2)c1 [H 14-4, 2 (4 fluorophenyl)-4 (3-methylphenyl)-5 (2 methyl-4 pyridyl)-1,3 thiazole] | 89 to 91
13 | Cc1cccc(-c2nc(-c3ccc(F)cc3F)sc2-c2ccnc(C)c2)c1 [H 14-5, 2 (2,4 difluorophenyl)-4-(3 methylphenyl)-5 (2 methyl-4 pyridyl)-1,3 thiazole] | 90 to 91
14 | Cc1cccc(-c2nc(-c3ccccc3)sc2-c2ccnc(C)c2)c1 [H 14-6, 4 (3 methylphenyl)-5 (2-methyl-4 pyridyl)-2 phenyl-1,3 thiazole] | 79 to 80
15 | Cc1cccc(-c2nc(Cc3ccccc3)sc2-c2ccnc(C)c2)c1 [H 14-7, 4 (3 methylphenyl)-5 (2-methyl-4 pyridyl)-2 (phenylmethyl)-1,3 thiazole] | 82 to 84
16 | Cc1cccc(-c2nc(CCc3ccccc3)sc2-c2ccnc(C)c2)c1 [H 14-8, 4 (3 methylphenyl)-5 (2-methyl-4 pyridyl)-2 (2 phenylethyl)-1,3 thiazole] | 64 to 65
17 | CCOC(=O)c1nc(-c2cccc(C)c2)c(-c2ccnc(C)c2)s1 [H 14-12, ethyl [4 (3-methylphenyl)-5 (2 methyl-4 pyridyl)-1,3 thiazol-2-yl]carboxylate] | 97 to 98
18 | Cc1cccc(-c2nc(N3CCN(C)CC3)sc2-c2ccnc(C)c2)c1 [H 14-13, 4 (3 methylphenyl)-2 (4-methylpiperazin-1 yl)-5 (2 methyl-4 pyridyl)-1,3 thiazole] | 115 to 116
19 | CSc1ccc(-c2nc(-c3cccc(C)c3)c(-c3ccnc(F)c3)s2)cc1 [H 15, 5-(2-fluoro-4-pyridyl)-4-(3-methylphenyl)-2-[4-(methylthio)phenyl]-1,3-thiazole] | 97 to 100
20 | Cc1cccc(-c2nc(-c3ccc(F)cc3)sc2-c2ccnc(N)c2)c1 [H 18-1, 4 [2 (4 fluorophenyl)-4-(3 methylphenyl)-1,3 thiazol-5 yl]-2 pyridylamine] | 160 to 162
21 | Cc1cccc(-c2nc(CC(F)(F)F)sc2-c2ccnc(N)c2)c1 [H 18-3, 4 [4 (3 methylphenyl)-2-(2,2,2 trifluoroethyl)-1,3 thiazol-5 yl]-2 pyridylamine] | 131 to 132
22 | CCCc1nc(-c2cccc(C)c2)c(-c2ccnc(N)c2)s1 [H 18-4, 4 [4 (3 methylphenyl)-2-propyl-1,3 thiazol-5 yl]-2 pyridylamine] | 113 to 115
23 | CCOC(=O)Cc1nc(-c2cccc(C)c2)c(-c2ccnc(N)c2)s1 [H 18-5, Ethyl [5 (2 amino-4-pyridyl)-4 (3 methylphenyl)-1,3 thiazol-2 yl]acetate] | 128 to 129

Now from value to molecule:

Row | melting point [°C] | Structure (SMILES)
24 | 144 to 145 | CSc1ccc(-c2nc(-c3cccc(C)c3)c(-c3ccnc(NCc4ccc5ccccc5c4)c3)s2)cc1 [D 19-20, N-[4 [4 (3 methylphenyl)-2 (4 methylthiophenyl)-1,3 thiazol-5 yl]-2 pyridyl]-N-(2-naphthylmethyl)amine]
25 | 199 to 201 | Cc1cccc(-c2nc(-c3ccc(S(C)(=O)=O)cc3)sc2-c2ccnc(NC(=O)c3cccs3)c2)c1 [D 21-3, N-[4 [4 (3 methylphenyl)-2-(4 methylsulfonylphenyl)-1,3 thiazol-5 yl]-2 pyridyl]-2-thiophenecarboxamide]
26 | 231 to 233 | Cc1cccc(-c2nc(-c3ccc(S(C)(=O)=O)cc3)sc2-c2ccnc(NC(=O)c3ccc4ccccc4c3)c2)c1 [D 21-4, N-[4 [4 (3 methylphenyl)-2-(4 methylsulfonylphenyl)-1,3 thiazol-5 yl]-2 pyridyl]-2-naphthamide]
27 | 167 to 168 | Cc1cccc(-c2nc(-c3ccc(S(C)(=O)=O)cc3)sc2-c2ccnc(NCCCc3ccccc3)c2)c1 [D 21-6, N-[4-[4-(3-methylphenyl)-2-(4-methylsulfonylphenyl)-1,3-thiazol-5-yl]-2-pyridyl]-N-(3-phenylpropyl)amine]
28 | 167 to 168 | Cc1cccc(-c2nc(-c3ccc(S(C)(=O)=O)cc3)sc2-c2ccnc(NCc3ccc4ccccc4c3)c2)c1 [D 21-7, N-[4 [4 (3 methylphenyl)-2-(4 methylsulfonylphenyl)-1,3 thiazol-5 yl]-2 pyridyl]-N-(2-naphthylmethyl)amine]
29 | 116 to 117 | Cc1cccc(-c2nc(-c3ccc(S(C)(=O)=O)cc3)sc2-c2ccnc(N(C)CCc3ccccc3)c2)c1 [D 25-4, N-methyl-N-[4 [4 (3-methylphenyl)-2 (4 methylsulfonylphenyl)-1,3 thiazol-5 yl]-2 pyridyl]-N-(2 phenylethyl)amine]
30 | 107 to 109 | Cc1cccc(-c2nc(-c3ccc(S(C)(=O)=O)cc3)sc2-c2ccnc(NCc3cccs3)c2)c1 [D 25-5, N-[4 [4 (3 methylphenyl)-2-(4 methylsulfonylphenyl)-1,3 thiazol-5 yl]-2 pyridyl]-N-(2-thienylmethyl)amine]
31 | 131 to 132 | CCc1nc(-c2cccc(Cl)c2)c(-c2ccnc(N)c2)s1 [H 20-1, 4 [2 ethyl-4 (3-chlorophenyl)-1,3 thiazol-5 yl]-2 pyridylamine]
32 | 158 to 159 | CCc1nc(-c2ccccc2)c(-c2ccnc(N)c2)s1 [H 20-2, 4 (2 ethyl-4 phenyl-1,3-thiazol-5 yl)-2 pyridylamine]
33 | 140 to 141 | CCc1nc(-c2ccc(F)cc2)c(-c2ccnc(N)c2)s1 [H 20-3, 4 [2 ethyl-4 (4-fluorophenyl)-1,3 thiazol-5 yl]-2 pyridylamine]
34 | 117 to 118 | CCc1nc(-c2cccc(C(F)(F)F)c2)c(-c2ccnc(N)c2)s1 [H 20-4, 4 [2 ethyl-4 [3-(trifluoromethyl)phenyl]-1,3 thiazol-5 yl]-2 pyridylamine]
35 | 119 to 120 | CCc1nc(-c2ccc(SC)cc2)c(-c2ccnc(N)c2)s1 [H 20-5, 4 [2 ethyl-4 [4-(methylthio)phenyl]-1,3 thiazol-5 yl]-2 pyridylamine]
36 | 153 to 154 | CCc1nc(-c2cccc(F)c2)c(-c2ccnc(N)c2)s1 [H 20-6, 4 [2 ethyl-4 (3-fluorophenyl)-1,3 thiazol-5 yl]-2 pyridylamine]
37 | 136 to 137 | CCc1nc(-c2ccc(Cl)cc2)c(-c2ccnc(N)c2)s1 [H 20-7, 4 [4 (4 chlorophenyl)-2-ethyl-1,3 thiazol-5 yl]-2 pyridylamine]
38 | 128 to 129 | CCc1cccc(-c2nc(CC)sc2-c2ccnc(N)c2)c1 [H 20-8, 4 [2 ethyl-4 (3-ethylphenyl)-1,3 thiazol-5 yl]-2 pyridylamine]
39 | 134 to 135 | CCc1nc(-c2ccc(F)c(C)c2)c(-c2ccnc(N)c2)s1 [H 20-9, 4 [2 ethyl-4 (4 fluoro-3-methylphenyl)-1,3 thiazol-5 yl]-2 pyridylamine]
40 | 80 to 81 | CCc1nc(-c2cccc(C(C)C)c2)c(-c2ccnc(N)c2)s1 [H 20-10, 4 [2 ethyl-4 [3 (1-methylethyl)phenyl]-1,3 thiazol-5 yl]-2 pyridylamine]
41 | 72 to 74 | CCCc1cccc(-c2nc(CC)sc2-c2ccnc(N)c2)c1 [H 20-11, 4 [2 ethyl-4 (3-propylphenyl)-1,3 thiazol-5 yl]-2 pyridylamine]
42 | 159 to 160 | CCc1nc(-c2cccs2)c(-c2ccnc(N)c2)s1 [H 20-12, 4 [2 ethyl-4 (2 thienyl)-1,3 thiazol-5 yl]-2 pyridylamine]
43 | 91 to 92 | Cc1cccc(-c2ncsc2-c2ccnc(N)c2)c1 [H 27-1, 4 [4 (3 methylphenyl)-1,3-thiazol-5 yl]-2 pyridylamine]
44 | 142 to 143 | Cc1nc(-c2cccc(Cl)c2)c(-c2ccnc(N)c2)s1 [H 27-2, 4 [4 (3 chlorophenyl)-2-methyl-1,3 thiazol-5 yl]-2 pyridylamine]
